Reference: patent US6525001B1, “Substituted pyrimidine and pyridine herbicides” (Mid-American Commercialization Corporation, priority 1997, dated 2003)

How the values were obtained:
Format in all cases: in vivo
[1] = tested on: rape (Brassica napus); assay: Test B pre-/postemergence; parameters: key: 0 is no effect; 10 is complete control
In short: (§1)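 Seeds were planted and sprayed preemergence, while plants at 2 to 18 cm (1- to 4-leaf stage) were sprayed postemergence at the same time, with test chemical in a non-phytotoxic solvent mixture containing surfactant. After twelve to sixteen days in a greenhouse, injury was rated visually against untreated controls on a 0–10 scale.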

[2] = tested on: crabgrass (Digitaria sanguinalis); assay: Test B pre-/postemergence; parameters: key: 0 is no effect; 10 is complete control; settings: for Crabgrass plant response rating: Preemergence
In short: as §1

[3] = tested on: momingglory (Ipomoea hederacea); assay: Test B pre-/postemergence; parameters: key: 0 is no effect; 10 is complete control
In short: as §1

[4] = tested on: corn (Zea mays); assay: Test B pre-/postemergence; parameters: key: 0 is no effect; 10 is complete control; settings: for Corn plant response rating: Preemergence
In short: as §1

[5] = tested on: sugar beet (Beta vulgaris); assay: Test B pre-/postemergence; parameters: key: 0 is no effect; 10 is complete control
In short: as §1

[6] = tested on: pigweed (Amaranthus retroflexus); assay: Test B pre-/postemergence; parameters: key: 0 is no effect; 10 is complete control
In short: as §1

[7] = tested on: bedstraw (Galium aparine); assay: Test B pre-/postemergence; parameters: key: 0 is no effect; 10 is complete control; settings: for Bedstraw plant response rating: Preemergence
In short: as §1

[8] = tested on: soybean (Glycine max); assay: Test B pre-/postemergence; parameters: key: 0 is no effect; 10 is complete control
In short: as §1

[9] = tested on: giant foxtail (Setaria faberii); assay: Test B pre-/postemergence; parameters: key: 0 is no effect; 10 is complete control
In short: as §1

[10] = tested on: wheat (Triticum aestivum); assay: Test B pre-/postemergence; parameters: key: 0 is no effect; 10 is complete control
In short: as §1

[11] = tested on: broadleaf signalgrass (Brachiaria decumbens); assay: Test B pre-/postemergence; parameters: key: 0 is no effect; 10 is complete control; settings: for B. signalgrass plant response rating: Preemergence
In short: as §1

[12] = tested on: wild oat (Avena fatua); assay: Test B pre-/postemergence; parameters: key: 0 is no effect; 10 is complete control
In short: as §1

[13] = tested on: purple nutsedge (Cyperus rotundus); assay: Test B pre-/postemergence; parameters: key: 0 is no effect; 10 is complete control; settings: Postemergence
In short: as §1

[14] = tested on: cocklebur (Xanthium strumarium); assay: Test B pre-/postemergence; parameters: key: 0 is no effect; 10 is complete control; settings: for Cocklebur plant response rating: Preemergence
In short: as §1

[15] = tested on: blackgrass (Alopecurus myosuroides); assay: Test B pre-/postemergence; parameters: key: 0 is no effect; 10 is complete control; settings: for Blackgrass plant response rating: Preemergence
In short: as §1

[16] = tested on: velvetleaf (Abutilon theophrasti); assay: Test B pre-/postemergence; parameters: key: 0 is no effect; 10 is complete control
In short: as §1

[17] = tested on: bamyardgrass (Echinochloa crus-galli); assay: Test B flood test
In short: (§2)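 Plants were grown to the 2-leaf stage before treatment with test chemical, then held in a greenhouse for twelve to sixteen days. Injury was visually rated against untreated controls on a 0–10 scale, where 0 is no effect and 10 is complete control.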

[18] = tested on: rice (Oryza sativa); assay: Test B flood test
In short: as §2

[19] = tested on: smallflower flatsedge (Cyperus difformis); assay: Test B flood test
In short: as §2

[20] = tested on: duck salad (Heteranthera limosa); assay: Test B flood test
In short: as §2

[21] = Rate 250 g/ha, Postemergence (so in the source)
[22] = Rate 62 g/ha, Postemergence (flood test)
[23] = Rate 125 g/ha, Postemergence, flood test
[24] = Rate 250 g/ha, Postemergence (flood test species)
[25] = Rate 125 g/ha, Postemergence section (flood test species)

CCc1cnc(-n2cnc(C(F)(F)F)n2)nc1Cc1cccc(OC(F)(F)F)c1 [Compound 50]
2: Plant response rating, Crabgrass ([2]; Rate 125 g/ha, Postemergence) | Plant response rating, Corn ([4]; Rate 125 g/ha, Postemergence) | Plant response rating, Corn ([4]; Rate 250 g/ha, Postemergence) | Bedstraw plant response rating ([7]; Rate 62 g/ha) | Giant foxtail plant response rating ([9]; Rate 62 g/ha, Preemergence) | Giant foxtail plant response rating ([9]; Rate 125 g/ha, Postemergence) | Plant response rating, Giant foxtail ([9]; Rate 250 g/ha, Postemergence) | Plant response rating, Wheat ([10]; Rate 125 g/ha, Preemergence) | Plant response rating, Wheat [10, 21] | Plant response rating, B. signalgrass ([11]; Rate 250 g/ha, Postemergence) | Wild oats plant response rating ([12]; Rate 62 g/ha, Postemergence) | Plant response rating, Nutsedge ([13]; Rate 62 g/ha) | Nutsedge plant response rating ([13]; Rate 125 g/ha) | Plant response rating, Nutsedge ([13]; Rate 250 g/ha) | Plant response rating, Blackgrass ([15]; Rate 62 g/ha, Postemergence) | Plant response rating, Rice [18, 22]
0: Corn plant response rating ([4]; Rate 62 g/ha) | Corn plant response rating ([4]; Rate 125 g/ha) | Plant response rating, Corn [4, 21] | B. signalgrass plant response rating ([11]; Rate 62 g/ha) | Cocklebur plant response rating ([14]; Rate 62 g/ha) | Cocklebur plant response rating ([14]; Rate 125 g/ha) | Plant response rating, Cocklebur [14, 21]
9: Plant response rating, Rape ([1]; Rate 62 g/ha, Postemergence) | Crabgrass plant response rating ([2]; Rate 125 g/ha) | Plant response rating, Crabgrass [2, 21] | Redroot pigweed plant response rating ([6]; Rate 125 g/ha, Preemergence) | Plant response rating, Redroot pigweed ([6]; Rate 250 g/ha, Postemergence) | Plant response rating, Redroot pigweed [6, 21] | Plant response rating, Bedstraw ([7]; Rate 62 g/ha, Postemergence) | Plant response rating, Bedstraw [7, 21] | Plant response rating, Velvetleaf [16, 21] | Plant response rating, S. Flatsedge [19, 24]
10: Rape plant response rating ([1]; Rate 125 g/ha, Postemergence) | Rape plant response rating ([1]; Rate 125 g/ha, Preemergence) | Plant response rating, Rape ([1]; Rate 250 g/ha, Postemergence) | Plant response rating, Rape [1, 21] | Plant response rating, Sugarbeets ([5]; Rate 250 g/ha, Postemergence) | Plant response rating, Sugarbeets [5, 21] | Plant response rating, Bedstraw ([7]; Rate 125 g/ha, Postemergence) | Plant response rating, Blackgrass [15, 21]
8: Sugarbeets plant response rating ([5]; Rate 125 g/ha, Postemergence) | Plant response rating, Redroot pigweed ([6]; Rate 62 g/ha, Postemergence) | Redroot pigweed plant response rating ([6]; Rate 125 g/ha, Postemergence) | Plant response rating, Giant foxtail [9, 21] | Plant response rating, Wild oats [12, 21] | Plant response rating, Blackgrass ([15]; Rate 250 g/ha, Postemergence) | Plant response rating, Velvetleaf ([16]; Rate 250 g/ha, Postemergence) | S. Flatsedge plant response rating [19, 25] | Plant response rating, Ducksalad [20, 24]
1: Plant response rating, Crabgrass ([2]; Rate 62 g/ha, Postemergence) | Morningglory plant response rating ([3]; Rate 62 g/ha, Preemergence) | Plant response rating, Corn ([4]; Rate 62 g/ha, Postemergence) | Soybean plant response rating ([8]; Rate 62 g/ha, Preemergence) | Plant response rating, Soybean ([8]; Rate 125 g/ha, Preemergence) | Plant response rating, Soybean [8, 21] | Plant response rating, Giant foxtail ([9]; Rate 62 g/ha, Postemergence) | Wheat plant response rating ([10]; Rate 62 g/ha, Preemergence) | Plant response rating, B. signalgrass ([11]; Rate 62 g/ha, Postemergence) | Plant response rating, B. signalgrass ([11]; Rate 125 g/ha, Postemergence) | B. signalgrass plant response rating ([11]; Rate 125 g/ha) | Plant response rating, B. signalgrass ([11]; Rate 250 g/ha, Postemergence as printed in head r139 (second section for compounds 26-50))
6: Rape plant response rating ([1]; Rate 62 g/ha, Preemergence) | Crabgrass plant response rating ([2]; Rate 62 g/ha) | Plant response rating, Crabgrass ([2]; Rate 250 g/ha, Postemergence) | Sugarbeets plant response rating ([5]; Rate 62 g/ha, Preemergence) | Plant response rating, Sugarbeets ([5]; Rate 125 g/ha, Preemergence) | Plant response rating, Soybean ([8]; Rate 62 g/ha, Postemergence) | Plant response rating, Velvetleaf ([16]; Rate 62 g/ha, Postemergence) | Plant response rating, S. Flatsedge [19, 22]
3: Plant response rating, Morningglory ([3]; Rate 62 g/ha, Postemergence) | Morningglory plant response rating ([3]; Rate 125 g/ha, Postemergence) | Morningglory plant response rating ([3]; Rate 125 g/ha, Preemergence) | Plant response rating, Morningglory ([3]; Rate 250 g/ha, Postemergence) | Wheat plant response rating ([10]; Rate 62 g/ha, Postemergence) | Wheat plant response rating ([10]; Rate 125 g/ha, Postemergence) | Wild oats plant response rating ([12]; Rate 62 g/ha, Preemergence) | Wild oats plant response rating ([12]; Rate 125 g/ha, Postemergence) | Blackgrass plant response rating ([15]; Rate 62 g/ha) | Plant response rating, Barnyardgrass [17, 22] | Rice plant response rating [18, 25]
7: Plant response rating, Sugarbeets ([5]; Rate 62 g/ha, Postemergence) | Redroot pigweed plant response rating ([6]; Rate 62 g/ha, Preemergence) | Bedstraw plant response rating ([7]; Rate 125 g/ha) | Soybean plant response rating ([8]; Rate 125 g/ha, Postemergence) | Plant response rating, Soybean ([8]; Rate 250 g/ha, Postemergence) | Giant foxtail plant response rating ([9]; Rate 125 g/ha, Preemergence) | Plant response rating, Cocklebur ([14]; Rate 250 g/ha, Postemergence) | Velvetleaf plant response rating ([16]; Rate 125 g/ha, Postemergence) | Plant response rating, Velvetleaf ([16]; Rate 125 g/ha, Preemergence)
4: Plant response rating, Morningglory [3, 21] | Plant response rating, Wheat ([10]; Rate 250 g/ha, Postemergence) | Plant response rating, Wild oats ([12]; Rate 125 g/ha, Preemergence) | Plant response rating, Wild oats ([12]; Rate 250 g/ha, Postemergence) | Plant response rating, Cocklebur ([14]; Rate 62 g/ha, Postemergence) | Plant response rating, Cocklebur ([14]; Rate 125 g/ha, Postemergence) | Velvetleaf plant response rating ([16]; Rate 62 g/ha, Preemergence) | Plant response rating, Barnyardgrass [17, 23] | Plant response rating, Barnyardgrass [17, 24] | Plant response rating, Rice [18, 24] | Plant response rating, Ducksalad [20, 22]
5: Plant response rating, Blackgrass ([15]; Rate 125 g/ha, Postemergence) | Blackgrass plant response rating ([15]; Rate 125 g/ha) | Plant response rating, Ducksalad [20, 23]
